Laboratory results taken from patent publication US10933053B2, “Treating infections with ceftolozane/tazobactam in subjects having impaired renal function” (MERCK SHARP & DOHME CORP., priority 2013, dated 2021).

What was measured:
[1] = Population PK model of ceftolozane and tazobactam (healthy volunteers, renal impairment, cUTI/cIAI patients); conditions: for CLd, population estimate: intercompartmental clearance; for Vc (L)^d, population estimate: peripheral volume of distribution per footnote
Method: A population-PK analysis was performed on plasma ceftolozane and tazobactam concentration-time data from adult subjects enrolled in 10 studies. Subjects were included from multiple sites and all studies were performed in accordance with the International Conference on Harmonization guidelines on good clinical practice and the Declaration of Helsinki. An investigational review board approved the study protocols at each site.
Serum concentration data were analyzed from 5 studies in healthy volunteers (n=184), 3 studies in subjects with varying degrees of renal impairment (n=42), and 2 phase 2 studies in patients with bacterial infections (cUTIs [n=73] and cIAIs [n=77]). In all studies, ceftolozane was administered as a 1-hour intravenous infusion either alone or in combination with tazobactam at a fixed 2:1 ratio (ceftolozane:tazobactam). […] In the phase 2 trials, cUTI patients received ceftolozane alone 1000 mg (q8h) and cIAI patients received ceftolozane/tazobactam 1000/500 mg (q8h).
All subjects who received at least 1 dose of study medication and had at least 1 measurement of ceftolozane or tazobactam were included (N=376). Plasma concentrations of ceftolozane and tazobactam were determined by a validated liquid-chromatography-tandem mass spectrometry assay (MicroConstants, Inc., San Diego, Calif.) described previously. Concentrations below the limit of quantitation (BLQ), as defined previously, were considered as missing. No substitutions were made to account for these missing data points.
Base model development. The model was developed in 2 stages: a preliminary PK model was developed based on datasets from 3 studies. In the current analysis, the structural model was refined using the PK data from 10 studies (including patients with cUTI or cIAI) and the covariate analysis repeated. The results based on this revised model are presented here. A nonlinear mixed-effects model was developed with Phoenix® NLME™ software, version 1.2, 2012 (Certara L. P. Pharsight, St. Louis, Mo.) using first-order maximum likelihood estimation, and a 2-compartment structure model was fitted to the plasma concentration time data. The First Order Conditional Estimation-Extended Least Squares (FOCE-ELS) engine was used for model fitting. The software R (R Foundation for Statistical Computing, Vienna, Austria, 2013) was used to generate tables of post hoc PK parameters and descriptive statistics.
Sources of variability, that may affect drug exposure, were identified using correlation plots of individual random effects (ETA with mean 0 and estimated variance ? ^2) of parameters such as systemic clearance (CL) and central volume of distribution (Vc) versus covariates. Extrinsic covariates analyzed included dose levels, drug-drug interactions between ceftolozane and tazobactam, and disease status (bacterial infections). Intrinsic covariates analyzed included body weight, age, sex, ethnicity, and baseline calculated CrCL). […] Renal impairment was categorized as normal (CrCL≥90 mL/min), mild (CrCL≥50-<90 mL/min), moderate (CrCL≥30-<50 mL/min), and severe (CrCL≥15-<30 mL/min).
Scatter plots were used to examine the effect of continuous variables and box plots were used for categorical variables. […] Covariates were introduced in a multiplicative order using a power model standardized by the median for continuous covariates and a linear model with an exponentiated factor relative to the reference for categorical covariates.
Final population PK model: evaluation and performance. The final population-PK models for ceftolozane and tazobactam were evaluated using standard diagnostics, goodness-of-fit criteria, nonparametric bootstrap resampling, and visual predictive check (VPC).

clinical [2] = conditions: human, in vivo; for Tmax / clearance / Vd / half-life: both sexes; for clearance: CL; for clearance / Vd: mean (CV %); for Vd: Vss; for half-life: t1/2, mean (CV %); for AUC higher in females compared to males / CL, mean (CV %) / Vss, mean (CV %) / t1/2, mean (CV %) / tmax, median (minimum, maximum): both
Method: This TQT study was a single-center, prospective, randomized, double-blind, double-dummy, placebo and active controlled, 4-way crossover study that evaluated a single therapeutic 1.5 g and a single supratherapeutic 4.5 g dose of ceftolozane/tazobactam compared with placebo. Moxifloxacin 400 mg, given orally, was used as a positive control. All subjects received study drug on 4 dosing days (Day 1, Day 5, Day 9, and Day 13) in a crossover fashion with a 3-day wash-out period between doses. Healthy men and women were randomized on a 1:1:1:1 basis to 1 of 4 dosing sequences.
Electrocardiograms were recorded (triplicate measurements) over 24 hours on Day 1, Day 5, Day 9, and Day 13 using a 12-lead Holter monitor. Blood samples for determination of ceftolozane, tazobactam, and the M1 metabolite of tazobactam levels were obtained at prespecified time intervals prior to and following each electrocardiogram (ECG) reading on dosing days. Plasma levels of ceftolozane, tazobactam, and its metabolite M1 were determined by LC/MS/MS assay.

clinical [3] = conditions: for Cmax: mean (CV %); for Tmax: median (minimum, maximum)
Text: The intravenous formulation of CXA-201 can be prepared by reconstituting a fixed dose combination mixture of two active components (ceftolozane and tazobactam), and intravenously administering the reconstituted pharmaceutical composition. The pharmacokinetic (PK) profile of ceftolozane/tazobactam has been studied in several preclinical and clinical studies.
The pharmacokinetic (PK) profile of ceftolozane/tazobactam has been studied in several preclinical and clinical studies.

clinical [4] = conditions: human, in vivo, t1/2, geometric mean
Method: The extent of ceftolozane exposure increases with decreasing renal function. […] In subjects with moderate renal impairment, exposure approximately doubles relative to that in subjects with normal renal function.
For tazobactam, this estimated exposure from a dose of 125 mg in subjects with severe renal impairment not on hemodialysis is similar to that achieved with 500 mg tazobactam in subjects with normal renal function (23.8 μg·h/mL).

Row | SMILES | Exponent of the relationship between CLcr and CL ([1]; Table 31 model) | Interindividual variability of CL, estimate ([1]; Table 31 model) | Interindividual variability of Vc, estimate ([1]; Table 31 model) | Proportional shift in Vc for infected patients ([1]; Table 31 model) | Vc, population estimate ([1]; Table 31 model) | CLd, population estimate ([1]; Table 31 model) | Vc (L)^d, population estimate ([1]; Table 31 model) | between-subject variability (BSV) of CL ([1]; final model) | Tmax (clinical [2]) | clearance (clinical [2]) | Vd (clinical [2]) | half-life (clinical [2]) | AUC higher in females compared to males (clinical [2]) | CL, mean (CV %) (clinical [2]) | Vss, mean (CV %) (clinical [2]) | t1/2, mean (CV %) (clinical [2]) | tmax, median (minimum, maximum) (clinical [2]) | half-life (clinical [4]) | further results
1 | Cn1c(N)c(NC(=O)NCCN)c[n+]1CC1=C(C(=O)O)N2C(=O)[C@@H](NC(=O)/C(=N\OC(C)(C)C(=O)O)c3nsc(N)n3)[C@H]2SC1 [Ceftolozane, (6R,7R)-3-[(5-amino-4-{[(2-aminoethyl)carbamoyl]amino}-1-methyl-1H-pyrazol-2-ium-2-yl)methyl]-7-({(2Z)-2-(5-amino-1,2,4-thiadiazol-3-yl)-2-[(1-carboxy-1-methylethoxy)imino]acetyl}amino)-8-oxo-5-thia-1-azabicyclo[4.2.0]oct-2-ene-2-carboxylate] | 0.75 | 34.3% | 34.0% | 1.37 | 11.8 L | 0.884 L/h | 2.88 L | 33.0% | 0.667 h | 92.8 mL/min | 13.5 L | 2.29 h | 22% | 5.50 (17) L/h | 13.7 (20) L | 2.72 (21) h | 0.667 (0.667, 1.18) h | 5.85 h | Exponent of the relationship between weight and CL ([1]; Table 31 model): 0.76; Proportional shift in CL for infected patients ([1]; Table 31 model): 1.26; Vc, population PK ([1]; cIAI): 18.2 L; Vc, population PK ([1]; cUTI, at 74 kg body weight): 13.8 L; CL, population estimate ([1]; human): 5.14 L/h; inter-compartment clearance (CL2), population PK ([1]; human): about 1 L/h; volume of distribution in the peripheral compartment (Vp), population PK ([1]; human): about 3 L; CL higher than in healthy subjects ([1]; patients with cUTI and cIAI): about 20%; AUC(0-t) (clinical [3]; human, in vivo): 172000 ng·h/mL; CL renal (clinical [3]; human, in vivo): 56.8 to 112 mL/min; Cmax, mean (CV %) (clinical [3]; human, in vivo): 74.4 (14) μg/mL; clearance (clinical [3]; human, in vivo): 68.3 to 112 mL/min; t1/2, mean (CV %) (clinical [3]; human, in vivo): 3.12 (22) h; tmax, median (minimum, maximum) (clinical [3]; human, in vivo): 1.07 (1.0, 1.1) h; Cmax (clinical [3]; human, in vivo): 69100 ng/mL; half-life (clinical [3]; human, in vivo, t1/2, mean (CV %)): 2.77 h; half-life (clinical [3]; human, in vivo, terminal elimination half-life (t1/2β)): ~2.5 h; Tmax (clinical [3]; human, in vivo): 1.02 h; excreted in the urine as unchanged parent drug (clinical [3]; male, human, in vivo, iv): greater than 95%
2 | C[C@]1(Cn2ccnn2)[C@H](C(=O)O)N2C(=O)C[C@H]2S1(=O)=O [Tazobactam, tazobactam] | 0.67 | 50.2% | 52.5% | 1.47 | 14.2 L | 3.13 L/h | 4.29 L | 50.2% | 0.667 h | 368 mL/min | 18.2 L | 0.87 h | 19% | 21.2 (19) L/h | 19.3 (22) L | 1.05 (17) h | 0.667 (0.667, 1.17) h | 1.78 h | power function of baseline CrCL on CL ([1]; [CrCL/115] exponent): 0.67; CL, population estimate ([1]; final model): 18.0 L/h; between-subject variability (BSV) of Vc ([1]; final model): 52.5%; inter-compartment clearance (CL2), population PK ([1]; final model): 3.13 L/h; volume of distribution in the peripheral compartment (Vp), population PK ([1]; final model): 4.29 L; CL, population estimate ([1]; previously-developed population PK model (Table 31)): 18.0 L/h; Vc, population estimate ([1]; subjects without infection): 14.2 L; excreted in the urine as the unchanged parent drug (clinical [3]; healthy volunteers): 80%; half-life (clinical [3]; human, in vivo, intravenous, terminal elimination half-life (t1/2β), healthy volunteers / normal renal function): ~1 h; AUC(0-t) (clinical [3]; human, plasma, intravenous, 1.5 g): 24400 ng·h/mL; Cmax (clinical [3]; human, plasma, intravenous, 1.5 g, 1.5 g q8h 1-hour infusion, healthy adults, Day 1): 18400 ng/mL; Cmax (clinical [3]; human, plasma, intravenous, 1.5 g, 1.5 g q8h 1-hour infusion, healthy adults, Day 10): 18000 ng/mL; half-life (clinical [3]; human, plasma, intravenous, 1.5 g, t1/2, mean (CV %), 1.5 g q8h, healthy adults, Day 10): 1.03 h; Tmax (clinical [3]; human, plasma, intravenous, 1.5 g, 1.5 g q8h, healthy adults, Day 1): 1.02 h; half-life (clinical [3]; human, plasma, intravenous, terminal elimination half-life (t1/2β), healthy volunteers / normal renal function): ~1 h; excreted in the urine as unchanged parent drug (clinical [3]; single 1.5 g IV dose of CXA-201, healthy male adults): More than 80%
